In patent publication US20230265151A1, “GIP/GLP1 CO-AGONIST COMPOUNDS” (priority 2020, published 2023):
Where two headings read alike, the source gives them in different places.

What was measured:
[1] = target: T1, human GLP-1 receptor (hGLP-1R) (Homo sapiens, UniProt P43220); assay: [125I]-GLP-1 binding, SPA with membranes of HEK293 cells expressing hGLP-1R
T1 construct: expressed in transfected cells; crude membranes

[2] = target: T2, human GIP receptor (hGIPR) (Homo sapiens, UniProt P48546); assay: [125I]-GIP binding, SPA with membranes of CHO cells expressing hGIPR
T2 construct: expressed in transfected cells; crude membranes
T2 sequence (P48546 22-466): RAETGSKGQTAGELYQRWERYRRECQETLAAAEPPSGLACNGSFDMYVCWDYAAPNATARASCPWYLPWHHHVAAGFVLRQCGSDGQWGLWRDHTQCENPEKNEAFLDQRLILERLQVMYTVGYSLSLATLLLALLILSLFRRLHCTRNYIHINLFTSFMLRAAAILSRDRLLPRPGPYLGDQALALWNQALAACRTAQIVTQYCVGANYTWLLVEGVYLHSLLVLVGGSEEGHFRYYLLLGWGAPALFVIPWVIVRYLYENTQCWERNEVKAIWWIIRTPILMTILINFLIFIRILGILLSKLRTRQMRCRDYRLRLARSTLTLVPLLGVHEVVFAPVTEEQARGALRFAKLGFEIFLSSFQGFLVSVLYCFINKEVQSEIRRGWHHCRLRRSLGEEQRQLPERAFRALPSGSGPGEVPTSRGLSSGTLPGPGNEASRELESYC

hGIPR = target: T3, hGIPR (Homo sapiens, UniProt P48546); assay: Functional cAMP formation (HTRF) in HEK-293 clonal cells expressing hGIPR, 0.1% bovine casein, without or with 1.0% human serum albumin; assay type: cell-based; settings: for Emax: percent of maximal response to GIP(1-42)NH2; for EC50: cAMP
T3 construct: expressed in transfected cells
T3 sequence (P48546 22-466): T2 sequence (P48546 22-466)
Method in brief: (§1)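 Cells were stimulated with peptide for 30 min at 37° C, then lysed in buffer carrying cAMP-d2 and anti-cAMP Eu3+-cryptate for a competitive HTRF read after at least 60 min at room temperature. The 665/620 nm ratio was converted to nM cAMP against a standard curve.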

hGCGR = target: T4, hGCGR (Homo sapiens, UniProt P47871); assay: Functional cAMP formation (HTRF) in HEK-293 clonal cells expressing hGCGR, 0.1% bovine casein, without or with 1.0% human serum albumin; assay type: cell-based; settings: 37° C.
T4 construct: expressed in transfected cells
Method in brief: as §1

hGLP-1R = hGLP-1R (Homo sapiens, UniProt P43220); assay: Functional cAMP formation (HTRF) in HEK-293 clonal cells expressing hGLP-1R, 0.1% bovine casein, without or with 1.0% human serum albumin; assay type: cell-based; set-up: expressed in transfected cells; settings: for Emax: percent of maximal response to GLP-1(7-36)NH2; for EC50: geometric mean
Method in brief: as §1

[3] = human GLP-1R, geometric mean (SEM, n), read-out: Binding Affinity Ki, nM (SEM, n) hGLP-1R
[4] = human GIPR, geometric mean (SEM, n), read-out: Binding Affinity Ki, nM (SEM, n) hGIPR
[5] = 37° C., 0.1% bovine casein (no human serum albumin), geometric mean, read-out: hGIPR EC50, nM (SEM, n)
[6] = cAMP, 0.1% bovine casein (no human serum albumin), geometric mean, read-out: hGCGR EC50, nM (SEM, n)
[7] = HEK293, cAMP, 37° C., 0.1% bovine casein, arithmetic mean, read-out: hGLP-1R Emax, % ± SEM
[8] = cAMP, 37° C., 0.1% bovine casein (no human serum albumin), read-out: hGLP-1R EC50, nM (SEM, n)
[9] = HEK293, 0.1% bovine casein and 1.0% human serum albumin, 37° C., read-out: hGIPR Emax, % ± SEM
[10] = 0.1% bovine casein and 1.0% human serum albumin, geometric mean, read-out: hGCGR EC50, nM (SEM, n)

T4 sequence (P47871 26-477): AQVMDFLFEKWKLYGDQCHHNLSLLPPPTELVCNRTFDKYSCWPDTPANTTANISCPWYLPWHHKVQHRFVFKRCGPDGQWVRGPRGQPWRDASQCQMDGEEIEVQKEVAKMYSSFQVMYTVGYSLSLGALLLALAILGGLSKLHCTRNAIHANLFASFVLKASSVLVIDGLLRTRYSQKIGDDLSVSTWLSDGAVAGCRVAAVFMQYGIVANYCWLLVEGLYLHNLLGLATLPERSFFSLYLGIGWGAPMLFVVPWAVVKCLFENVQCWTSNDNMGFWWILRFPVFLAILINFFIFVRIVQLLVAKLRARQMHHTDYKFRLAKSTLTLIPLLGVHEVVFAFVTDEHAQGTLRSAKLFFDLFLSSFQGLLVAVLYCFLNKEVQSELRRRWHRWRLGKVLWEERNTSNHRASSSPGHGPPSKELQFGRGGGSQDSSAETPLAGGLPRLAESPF
T1 sequence (P43220 24-463): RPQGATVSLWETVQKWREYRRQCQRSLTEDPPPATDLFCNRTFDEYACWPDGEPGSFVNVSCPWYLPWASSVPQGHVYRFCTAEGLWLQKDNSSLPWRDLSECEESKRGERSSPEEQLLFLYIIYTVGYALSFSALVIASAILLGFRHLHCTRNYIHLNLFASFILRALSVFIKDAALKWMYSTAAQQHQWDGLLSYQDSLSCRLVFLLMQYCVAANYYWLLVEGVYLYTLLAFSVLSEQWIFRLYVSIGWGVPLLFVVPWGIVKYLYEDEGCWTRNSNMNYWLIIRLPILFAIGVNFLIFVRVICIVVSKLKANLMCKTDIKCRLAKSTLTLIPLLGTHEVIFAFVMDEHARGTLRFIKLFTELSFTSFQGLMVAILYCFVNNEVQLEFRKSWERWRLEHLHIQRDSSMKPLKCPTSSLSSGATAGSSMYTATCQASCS
Sequence of hGLP-1R (P43220 24-463): as above

Structure (SMILES)	Ki [1, 3] [nM]	Ki [2, 4] [nM]	EC50 (hGIPR; [5]) [nM]	EC50 (hGCGR; [6]) [nM]	Emax (hGLP-1R; [7]) [%]	EC50 (hGLP-1R; [8]) [nM]	Emax (hGIPR; [9]) [%]	EC50 (hGCGR; [10]) [nM]	other results
CCCCCCCCCCCC(=O)N[C@@H](CCC(=O)NCCOCCOCC(=O)NCCOCCOCC(=O)NCCOCCOCC(=O)NCCCC[C@H](NC(=O)[C@H](CCCN)NC(=O)[C@H](CC(=O)O)NC(=O)[C@H](CC(C)C)NC(=O)[C@](C)(CC(C)C)NC(=O)[C@@H](NC(=O)C(C)(C)NC(=O)[C@H](Cc1ccncc1)NC(=O)[C@H](CC(=O)O)NC(=O)[C@H](CO)NC(=O)[C@@H](NC(=O)[C@](C)(Cc1ccccc1F)NC(=O)[C@@H](NC(=O)CNC(=O)[C@H](CCC(=O)O)NC(=O)C(C)(C)NC(=O)[C@@H](N)Cc1ccc(O)cc1)[C@@H](C)O)[C@@H](C)O)[C@@H](C)CC)C(=O)N[C@@H](C)C(=O)N[C@@H](CCC(N)=O)C(=O)NC(C)(C)C(=O)N[C@@H](CCC(=O)O)C(=O)N[C@@H](Cc1ccccc1)C(=O)N[C@H](C(=O)N[C@H](CCC(=O)O)C(=O)N[C@@](C)(Cc1ccc(O)cc1)C(=O)N[C@@H](CC(C)C)C(=O)N[C@H](C(=O)N[C@@H](CCCCNC(=O)COCCOCCNC(=O)COCCOCCNC(=O)COCCOCCNC(=O)CC[C@H](NC(=O)CCCCCCCCCCC)C(=O)O)C(=O)NCC(=O)NCC(=O)N1CCC[C@H]1C(=O)N[C@@H](CO)C(=O)N[C@@H](CO)C(=O)NCC(=O)N[C@@H](C)C(=O)N1CCC[C@H]1C(=O)N1CCC[C@H]1C(=O)N1CCC[C@H]1C(=O)N[C@@H](CO)C(N)=O)[C@@H](C)CC)[C@@H](C)CC)C(=O)O [Example 423]	0.275	0.0207	0.00658	> 9950	105	0.0721			Emax (hGIPR; HEK293, cAMP, 37° C., 0.1% bovine casein and 1.0% human serum albumin, read-out: hGIPR Emax, % ± SEM): 89.7%; EC50 (hGCGR; cAMP, 0.1% bovine casein and 1.0% human serum albumin, geometric mean (SEM, n), read-out: hGCGR EC50, nM (SEM, n)): > 9950 nM
CC[C@H](C)[C@H](NC(=O)[C@H](CC(C)C)NC(=O)[C@](C)(Cc1ccc(O)cc1)NC(=O)[C@H](CCCCNC(=O)COCCOCCNC(=O)COCCOCCNC(=O)COCCOCCNC(=O)CC[C@H](NC(=O)CCCCCCCCCOc1ccc(C(=O)O)cc1)C(=O)O)NC(=O)[C@@H](NC(=O)[C@H](Cc1ccccc1)NC(=O)[C@H](CCCN)NC(=O)C(C)(C)NC(=O)[C@H](CCC(N)=O)NC(=O)[C@H](C)NC(=O)[C@H](CCC(N)=O)NC(=O)[C@H](CCCN)NC(=O)[C@H](CC(=O)O)NC(=O)[C@H](CC(C)C)NC(=O)[C@](C)(CC(C)C)NC(=O)[C@@H](NC(=O)C(C)(C)NC(=O)[C@H](Cc1ccncc1)NC(=O)[C@H](CC(=O)O)NC(=O)[C@H](CO)NC(=O)[C@@H](NC(=O)[C@](C)(Cc1ccccc1F)NC(=O)[C@@H](NC(=O)CNC(=O)[C@H](CCC(=O)O)NC(=O)C(C)(C)NC(=O)[C@@H](N)Cc1ccc(O)cc1)[C@@H](C)O)[C@@H](C)O)[C@@H](C)CC)[C@@H](C)CC)C(=O)N[C@@H](CCCCNC(=O)COCCOCCNC(=O)COCCOCCNC(=O)COCCOCCNC(=O)CC[C@H](NC(=O)CCCCCCCCCOc1ccc(C(=O)O)cc1)C(=O)O)C(=O)NCC(=O)NCC(=O)N1CCC[C@H]1C(=O)N[C@@H](CO)C(=O)N[C@@H](CO)C(=O)NCC(=O)N[C@@H](C)C(=O)N1CCC[C@H]1C(=O)N1CCC[C@H]1C(=O)N1CCC[C@H]1C(=O)N[C@@H](CO)C(N)=O [Example 477]									Ki [1]: 0.143 nM; Ki [2]: 0.0279 nM; Emax (hGIPR; HEK293, read-out: hGIPR Emax, % ± SEM, cAMP, 37° C., 0.1% bovine casein and 1.0% human serum albumin): 88.1%; EC50 (hGIPR; hGIPR EC50, nM (SEM, n), 37° C., 0.1% bovine casein (no human serum albumin), geometric mean): 0.00861 nM; EC50 (hGIPR; hGIPR EC50, nM (SEM, n), 37° C., 0.1% bovine casein and 1.0% human serum albumin, geometric mean (SEM, n)): 0.163 nM; EC50 (hGCGR; hGCGR EC50, nM (SEM, n), cAMP, 0.1% bovine casein (no human serum albumin), geometric mean): > 9950 nM; EC50 (hGCGR; hGCGR EC50, nM (SEM, n), cAMP, 0.1% bovine casein and 1.0% human serum albumin, geometric mean (SEM, n)): > 9950 nM; Emax (hGLP-1R; HEK293, read-out: hGLP-1R Emax, % ± SEM, cAMP, 37° C., 0.1% bovine casein and 1.0% human serum albumin): 110%; Emax (hGLP-1R; HEK293, read-out: hGLP-1R Emax, % ± SEM, cAMP, 37° C., 0.1% bovine casein, arithmetic mean): 110%; EC50 (hGLP-1R; hGLP-1R EC50, nM (SEM, n), cAMP, 37° C., 0.1% bovine casein (no human serum albumin)): 0.143 nM
CCCCCCCCCCCC(=O)N[C@@H](CCC(=O)NCCOCCOCC(=O)NCCOCCOCC(=O)NCCCC[C@H](NC(=O)[C@H](CCCN)NC(=O)[C@H](CC(=O)O)NC(=O)[C@H](CC(C)C)NC(=O)[C@](C)(CC(C)C)NC(=O)[C@@H](NC(=O)C(C)(C)NC(=O)[C@H](CCCCNC(=O)COCCOCCNC(=O)COCCOCCNC(=O)CC[C@H](NC(=O)CCCCCCCCCCC)C(=O)O)NC(=O)[C@H](CC(=O)O)NC(=O)[C@H](CO)NC(=O)[C@@H](NC(=O)[C@](C)(Cc1ccccc1F)NC(=O)[C@@H](NC(=O)CNC(=O)[C@H](CCC(=O)O)NC(=O)C(C)(C)NC(=O)[C@@H](N)Cc1ccc(O)cc1)[C@@H](C)O)[C@@H](C)O)[C@@H](C)CC)C(=O)N[C@@H](C)C(=O)N[C@@H](CCC(N)=O)C(=O)NC(C)(C)C(=O)N[C@@H](CCC(=O)O)C(=O)N[C@@H](Cc1ccccc1)C(=O)N[C@H](C(=O)N[C@H](CCC(=O)O)C(=O)N[C@@](C)(Cc1ccc(O)cc1)C(=O)N[C@@H](CC(C)C)C(=O)N[C@H](C(=O)N[C@@H](CCC(=O)O)C(=O)NCC(=O)NCC(=O)N1CCC[C@H]1C(=O)N[C@@H](CO)C(=O)N[C@@H](CO)C(=O)NCC(=O)N[C@@H](C)C(=O)N1CCC[C@H]1C(=O)N1CCC[C@H]1C(=O)N1CCC[C@H]1C(=O)N[C@@H](CO)C(N)=O)[C@@H](C)CC)[C@@H](C)CC)C(=O)O [Example 292]	0.289	0.0161	0.0062	> 9950		0.0758	88.4	> 9950	EC50 (hGLP-1R; 0.1% bovine casein and 1.0% human serum albumin, 37° C., read-out: hGLP-1R EC50, nM (SEM, n)): 4.35 nM
CCCCCCCCCCCC(=O)N[C@@H](CCC(=O)NCCOCCOCC(=O)NCCOCCOCC(=O)NCCCC[C@H](NC(=O)[C@H](CCCN)NC(=O)[C@H](CC(=O)O)NC(=O)[C@H](CC(C)C)NC(=O)[C@](C)(CC(C)C)NC(=O)[C@@H](NC(=O)C(C)(C)NC(=O)[C@H](Cc1ccncc1)NC(=O)[C@H](CC(=O)O)NC(=O)[C@H](CO)NC(=O)[C@@H](NC(=O)[C@](C)(Cc1ccccc1F)NC(=O)[C@@H](NC(=O)CNC(=O)[C@H](CCC(=O)O)NC(=O)C(C)(C)NC(=O)[C@@H](N)Cc1ccc(O)cc1)[C@@H](C)O)[C@@H](C)O)[C@@H](C)CC)C(=O)N[C@@H](C)C(=O)N[C@@H](CCC(N)=O)C(=O)NC(C)(C)C(=O)N[C@@H](CCCCNC(=O)COCCOCCNC(=O)COCCOCCNC(=O)CC[C@H](NC(=O)CCCCCCCCCCC)C(=O)O)C(=O)N[C@@H](Cc1ccccc1)C(=O)N[C@H](C(=O)N[C@H](CCC(=O)O)C(=O)N[C@@](C)(Cc1ccc(O)cc1)C(=O)N[C@@H](CC(C)C)C(=O)N[C@H](C(=O)N[C@@H](CCC(=O)O)C(=O)NCC(=O)NCC(=O)N1CCC[C@H]1C(=O)N[C@@H](CO)C(=O)N[C@@H](CO)C(=O)NCC(=O)N[C@@H](C)C(=O)N1CCC[C@H]1C(=O)N1CCC[C@H]1C(=O)N1CCC[C@H]1C(=O)N[C@@H](CO)C(N)=O)[C@@H](C)CC)[C@@H](C)CC)C(=O)O [Example 322]	0.234	0.0162	0.00937	> 9950	100	0.144	89.7	> 9950	Emax (hGLP-1R; HEK293, 0.1% bovine casein and 1.0% human serum albumin, 37° C., read-out: hGLP-1R Emax, % ± SEM): 94.5%
